Laboratory results: patent US9150546B2, “Triazine derivative and pharmaceutical composition comprising the same” (SHIONOGI & CO., LTD., priority 2009, dated 2015)

molecular target: human P2X3 receptor (Homo sapiens (Human), UniProt P56373); assay: P2X3 receptor inhibition, ATP-evoked Fluo-3 fluorescence (FDSS 3000); format: cell-based; conditions: C6BU-1 cell transfected with human P2X3 receptor gene
Sequence (P56373 whole entry): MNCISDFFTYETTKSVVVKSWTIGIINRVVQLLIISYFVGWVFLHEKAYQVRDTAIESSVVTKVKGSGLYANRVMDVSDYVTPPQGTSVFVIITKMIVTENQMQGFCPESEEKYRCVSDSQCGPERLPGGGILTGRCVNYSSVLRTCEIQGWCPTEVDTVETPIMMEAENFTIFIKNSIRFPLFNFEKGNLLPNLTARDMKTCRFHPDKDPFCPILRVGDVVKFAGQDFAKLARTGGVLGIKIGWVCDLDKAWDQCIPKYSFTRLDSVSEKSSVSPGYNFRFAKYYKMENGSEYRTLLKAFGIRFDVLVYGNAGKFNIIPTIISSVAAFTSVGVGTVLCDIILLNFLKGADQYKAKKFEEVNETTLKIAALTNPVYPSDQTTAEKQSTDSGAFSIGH

Row | Compound | IC50 [nM]
1 | CC(C)Oc1ccc(/N=c2\[nH]c(=O)n(C[C@@H](C)C(=O)O)c(=O)n2Cc2ccc(Cl)cc2)cc1 [I-483] | 100
2 | O=c1nc(Nc2cccc(-c3ccon3)c2)n(Cc2ccc(Cl)cc2)c(=O)n1CCO [I-314] | 555
3 | CCOc1ccc(Nc2nc(=O)n(CCCO)c(=O)n2Cc2ccc(Cl)cc2)cc1 [I-361] | 76
4 | CC(C)Oc1ccc(Nc2nc(=O)n(CC(=O)N(C)C)c(=O)n2Cc2ccc(Cl)cc2)cc1F [I-293] | 351
5 | CC(C)Oc1ccc(/N=c2\[nH]c(=O)n(CC(=O)NC(CO)CO)c(=O)n2Cc2ccc(Cl)cc2)cc1F [I-398] | 7
6 | CC(C)(Cn1c(=O)[nH]/c(=N\c2cccc(Cl)c2)n(Cc2ccc(Cl)cc2)c1=O)C(=O)O [I-468] | 137
7 | CC(C)Oc1ccc(Nc2nc(=O)n(CCOC3CCCCO3)c(=O)n2Cc2ccc(Cl)cc2)cc1Cl (centres unmarked) [I-350] | 10
8 | Cc1cc(/N=c2\[nH]c(=O)n(C[C@H](C)C(=O)O)c(=O)n2CC2CCCCC2)ccc1OC(C)C [I-559] | 97
9 | COc1cc(Cl)ccc1Cn1c(Nc2ccc(OC(C)C)c(F)c2)nc(=O)n(C(C)C)c1=O [I-270] | 271
10 | CC(C)Oc1ccc(/N=c2\[nH]c(=O)n(CCC(=O)NCC#N)c(=O)n2Cc2ccc(Cl)cc2)cc1F [I-439] | 18
11 | COC(=O)[C@@H](C)Cn1c(=O)nc(Nc2ccc(OC(C)C)c(C)c2)n(Cc2ccc(Cl)cc2)c1=O [I-531] | 10
12 | CC(C)Oc1ccc(Nc2nc(=O)n(CCNC(=O)NCC(=O)O)c(=O)n2Cc2ccc(Cl)cc2)cc1F [I-392] | 38
13 | CC(C)n1c(=O)nc(Nc2ccc3[nH]c(=O)oc3c2)n(Cc2ccc(Cl)cc2)c1=O [I-246] | 996
14 | COC(=O)C[C@H](C)n1c(=O)[nH]/c(=N\c2ccc(OC(C)C)c(C)c2)n(Cc2ccc(Cl)cc2)c1=O [I-524] | 60
